# Laboratory results published in patent publication US20020103117A1, “Use of protein kinase-inhibitor-alpha” (priority 2000, published 2002).
# What was measured:
# functioning rat heart = assay: Action of PKI-alpha on an isolated, perfused functioning rat heart; parameters: species or system Sprague Dawley rats
# Description: Hearts from a total of six Sprague Dawley rats with a weight of about 300 g were isolated and perfused as described in Schulze et al. (Schulze et al.; Circulation 1990: 959-69). The hemodynamic parameters including contractility, external heart work (EHW), coronary and aortic flow were recorded about 15 minutes after antegrade perfusion. Cell-permeable, recombinant PKI-alpha (amino acids 14 to 22, Calbiochem #476485) was then administered. The compound was infused directly into the atrium canula using a motor pump. The infusion rate was continuously adapted to the emission volume (the sum of the aortic and coronary flow) and increased in five-minute intervals to reach the final PKI-alpha concentrations in the perfusate of 0.5, 1.0 and 2.0 μmol/l.
# protein kinase-A = assay: Activity of protein kinase-A in cell cultures of myocytes; type: cell-based; details: cell cultures of myocytes (e.g., C9H2 cells)
# Description: The protein-kinase-inhibitor alpha shortened to amino acids 14 to 22 was added to the cell cultures of myocytes (e.g., C9H2 cells, available from the American Type Culture Collection), and the activity of protein kinase-A was determined.
# The 9-amino-acid-long PKI-alpha inhibitor (the gene product of the second open reader frame of the PKI gene in humans and in pigs) was added to the cell cultures of myocytes, and the expression of the PKI-alpha and the activity of protein kinase-A were determined.
# [1] = PKI-alpha in perfusate 0.5, 1.0 and 2.0 μmol/l
substance,measurement,setting,value
"shortened PKI-alpha: Cell-permeable, recombinant PKI-alpha comprising only amino acids 14 to 22 of the complete sequence, Calbiochem #476485","decrease of the left ventricular function, expressed as dp/dt-max",functioning rat heart; [1],53%
same,reduction of the external heart work,functioning rat heart; [1],43%
same,depression of the myocardial function,functioning rat heart; infusion up to 2 μmol,"pronounced, reversible, concentration-dependent (up to 2 μmol) depression of the myocardial function"
same,activity of protein kinase-A,protein kinase-A,dose-dependent reduction of activity
